Laboratory results reported in ChEMBL document CHEMBL1201862, “PubChem BioAssay data set” (2004).
Where a name gives a salt, the structure may show the parent alone.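 Compound exposure: 48 hours, 5 concentrations, 96-well plates. GI50 marks 50% less growth.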 Active and inactive are the calls of the source. No stated cut-off is given here; in the data, active = GI50 up to about 1.1 µM and inactive = higher.

What was measured:
Experiment in all cases: NCI tumour cell line growth inhibition, 48 h
CCRF-CEM = tested on: CCRF-CEM
EKVX = tested on: EKVX
HCT-116 = tested on: HCT-116
IGROV-1 = tested on: IGROV-1
KM12 = tested on: KM12
LOX IMVI = tested on: LOX IMVI
MDA-N = tested on: MDA-N
NCI-H226 = tested on: NCI-H226
NCI-H23 = tested on: NCI-H23
NCI-H460 = tested on: NCI-H460
NCI-H522 = tested on: NCI-H522
OVCAR-5 = tested on: OVCAR-5
SF-295 = tested on: SF-295
SK-MEL-28 = tested on: SK-MEL-28
SR = tested on: SR
TK-10 = tested on: TK-10
UACC-257 = tested on: UACC-257
OVCAR-4 = tested on: OVCAR-4
UACC-62 = tested on: UACC-62
SK-OV-3 = tested on: SK-OV-3

SMILES | GI50 (CCRF-CEM) | GI50 (EKVX) | GI50 (HCT-116) | GI50 (IGROV-1) | GI50 (KM12) | GI50 (LOX IMVI) | GI50 (MDA-N) | GI50 (NCI-H226) | GI50 (NCI-H23) | GI50 (NCI-H460) | GI50 (NCI-H522) | GI50 (OVCAR-5) | GI50 (SF-295) | GI50 (SK-MEL-28) | GI50 (SR) | GI50 (TK-10) | GI50 (UACC-257) | GI50 (OVCAR-4) | GI50 (UACC-62) | GI50 (SK-OV-3)
CCOC(=O)c1cn2c(ccc3sc4ccccc4c(=O)c32)n1 | > 100 µM (inactive) | > 100 µM (inactive) | > 100 µM (inactive) | > 100 µM (inactive) | > 100 µM (inactive) | > 100 µM (inactive) | > 100 µM (inactive) | > 100 µM (inactive) | > 100 µM (inactive) | > 100 µM (inactive) | > 100 µM (inactive) | > 100 µM (inactive) | > 100 µM (inactive) | > 100 µM (inactive) | > 100 µM (inactive) | > 100 µM (inactive) | > 100 µM (inactive) | – | – | –
Cc1cccc(/N=N/C(=O)NNc2cccc(C)c2C)c1C | > 10 µM (inactive) | – | 29.4 µM (inactive) | 23.9 µM (inactive) | – | 25.8 µM (inactive) | 36.3 µM (inactive) | 38.8 µM (inactive) | 32.7 µM (inactive) | 38.5 µM (inactive) | 24.7 µM (inactive) | 37 µM (inactive) | – | 43.6 µM (inactive) | 33.2 µM (inactive) | 37.7 µM (inactive) | 34.7 µM (inactive) | 30.8 µM (inactive) | 29.5 µM (inactive) | –
O=C(O)c1ccccc1C(=O)c1ccc2c(c1)Cc1ccccc1-2 | – | 68.5 µM (inactive) | 73.5 µM (inactive) | > 100 µM (inactive) | 64.1 µM (inactive) | 85.7 µM (inactive) | 48.8 µM (inactive) | 36.1 µM (inactive) | > 100 µM (inactive) | 46.1 µM (inactive) | 41.9 µM (inactive) | > 100 µM (inactive) | 69.7 µM (inactive) | 53.7 µM (inactive) | 91.6 µM (inactive) | 52.1 µM (inactive) | > 100 µM (inactive) | > 100 µM (inactive) | 66.8 µM (inactive) | > 100 µM (inactive)
Cc1ccc2c(O)cc(-c3csc4ccccc34)nc2n1 | < 0.01 µM (active) | 0.0344 µM (active) | < 0.0104 µM (active) | 0.0362 µM (active) | < 0.01 µM (active) | < 0.0115 µM (active) | < 0.01 µM (active) | 0.0174 µM (active) | 0.0274 µM (active) | < 0.0161 µM (active) | < 0.01 µM (active) | 0.0358 µM (active) | < 0.01 µM (active) | – | < 0.01 µM (active) | 0.484 µM (active) | – | – | < 0.0122 µM (active) | < 0.01 µM (active)
CN1C[C@H](C(=O)N[C@]2(C)O[C@@]3(O)[C@@H]4CCCN4C(=O)[C@H](Cc4ccccc4)N3C2=O)C=C2c3cccc4[nH]cc(c34)C[C@H]21 [ERGOTAMINE TARTRATE] | 20 µM (inactive) | 30.8 µM (inactive) | 21 µM (inactive) | 20 µM (inactive) | 28.8 µM (inactive) | 15.5 µM (inactive) | 18.5 µM (inactive) | 30.3 µM (inactive) | 21.5 µM (inactive) | – | 16.3 µM (inactive) | 20.2 µM (inactive) | 19.3 µM (inactive) | 17.1 µM (inactive) | 16.1 µM (inactive) | 17.4 µM (inactive) | 13.9 µM (inactive) | 20.7 µM (inactive) | 16 µM (inactive) | 29.9 µM (inactive)
CN(C)CC1CCC(CN(C)C)C1=O (stereo not given) | – | 4.53 µM (inactive) | 2.27 µM (inactive) | 7.94 µM (inactive) | 10.3 µM (inactive) | 4.54 µM (inactive) | 2.01 µM (inactive) | 19.7 µM (inactive) | 4.05 µM (inactive) | 20.8 µM (inactive) | 0.114 µM (active) | 9.73 µM (inactive) | 18.3 µM (inactive) | 8.65 µM (inactive) | 2.6 µM (inactive) | 14.7 µM (inactive) | 8.34 µM (inactive) | 5.32 µM (inactive) | 13.9 µM (inactive) | 16.8 µM (inactive)
Brc1ccc(C2=NCSC(c3ccc(Br)cc3)=N2)cc1 | – | 11.6 µM (inactive) | 16.6 µM (inactive) | 33.2 µM (inactive) | 24.4 µM (inactive) | 25.4 µM (inactive) | 20.1 µM (inactive) | 34.3 µM (inactive) | 32 µM (inactive) | 18.4 µM (inactive) | 22.2 µM (inactive) | 76 µM (inactive) | 26.9 µM (inactive) | 46.5 µM (inactive) | 22.2 µM (inactive) | 17.6 µM (inactive) | 19.1 µM (inactive) | 41.9 µM (inactive) | 5.3 µM (inactive) | 43.1 µM (inactive)
CC1C/C(=N\N(C)C)C(C#N)(C#N)C1(C#N)C#N (stereo not given) | 0.91 µM (active) | 22 µM (inactive) | 9.48 µM (inactive) | 20.6 µM (inactive) | 27 µM (inactive) | 7.14 µM (inactive) | 17.8 µM (inactive) | 30.2 µM (inactive) | 20.5 µM (inactive) | – | 1.93 µM (inactive) | 21.6 µM (inactive) | 20.8 µM (inactive) | 16 µM (inactive) | 2.82 µM (inactive) | 13.6 µM (inactive) | 13.2 µM (inactive) | 12.6 µM (inactive) | 13.8 µM (inactive) | > 46.9 µM (inactive)
COC(=O)c1c(O)ccc2c1c1cc3ccccc3c(O)c1n2CCc1ccc(OC)c(OC)c1 | 30.1 µM (inactive) | > 100 µM (inactive) | 97.1 µM (inactive) | 42.2 µM (inactive) | 51.3 µM (inactive) | – | 57.7 µM (inactive) | > 100 µM (inactive) | 93.1 µM (inactive) | 20.9 µM (inactive) | 21.1 µM (inactive) | > 100 µM (inactive) | 96.8 µM (inactive) | 17.4 µM (inactive) | 38.4 µM (inactive) | > 100 µM (inactive) | > 100 µM (inactive) | 42.1 µM (inactive) | > 100 µM (inactive) | > 100 µM (inactive)
OC1c2ccccc2CCC1CN1CCN(CCOC(c2ccc(F)cc2)c2ccc(F)cc2)CC1 (stereo not given) | 0.145 µM (active) | – | 8.22 µM (inactive) | 17.9 µM (inactive) | 20.5 µM (inactive) | 13.8 µM (inactive) | 15.8 µM (inactive) | 13.6 µM (inactive) | 14.5 µM (inactive) | 15.4 µM (inactive) | 15.7 µM (inactive) | – | 18 µM (inactive) | 13.3 µM (inactive) | 2.53 µM (inactive) | 17 µM (inactive) | 14.7 µM (inactive) | 50.5 µM (inactive) | 13.8 µM (inactive) | 94.8 µM (inactive)
C#CCCOC(=O)CC1=C(C)/C(=C/c2ccc([S+](C)[O-])cc2)c2ccc(F)cc21 (stereo not given) | 15 µM (inactive) | 22.8 µM (inactive) | 16.8 µM (inactive) | 20.8 µM (inactive) | 10.8 µM (inactive) | 14.9 µM (inactive) | 6.67 µM (inactive) | 19 µM (inactive) | 22.2 µM (inactive) | 18 µM (inactive) | 17.3 µM (inactive) | 34.2 µM (inactive) | 13.9 µM (inactive) | – | 3.47 µM (inactive) | 28.3 µM (inactive) | 15.7 µM (inactive) | 19.2 µM (inactive) | 13.6 µM (inactive) | 37 µM (inactive)
C/C(=N\NC(=S)N1CCC1)c1ccccn1 | 0.01 µM (active) | 0.0658 µM (active) | 0.01 µM (active) | 0.01 µM (active) | 0.0287 µM (active) | < 0.0119 µM (active) | 0.0682 µM (active) | 0.293 µM (active) | 0.01 µM (active) | < 0.0184 µM (active) | < 0.0497 µM (active) | – | 0.01 µM (active) | 0.425 µM (active) | 0.01 µM (active) | 1.29 µM (inactive) | < 0.0229 µM (active) | – | < 0.016 µM (active) | < 0.0131 µM (active)
CC(O)(Cc1ccccc1C#N)Cc1ccccc1C#N | – | > 100 µM (inactive) | > 100 µM (inactive) | > 100 µM (inactive) | 51.5 µM (inactive) | > 100 µM (inactive) | > 100 µM (inactive) | 50 µM (inactive) | – | 73.6 µM (inactive) | > 100 µM (inactive) | > 100 µM (inactive) | 74 µM (inactive) | > 100 µM (inactive) | > 100 µM (inactive) | > 100 µM (inactive) | 89.7 µM (inactive) | 54.2 µM (inactive) | 59.8 µM (inactive) | > 100 µM (inactive)
CN/C(=N\CCSCc1nc[nH]c1C)NC#N [CIMETIDINE] | > 100 µM (inactive) | > 10 µM (inactive) | > 100 µM (inactive) | > 100 µM (inactive) | > 100 µM (inactive) | > 100 µM (inactive) | > 100 µM (inactive) | > 100 µM (inactive) | > 100 µM (inactive) | > 100 µM (inactive) | > 100 µM (inactive) | > 100 µM (inactive) | > 100 µM (inactive) | > 100 µM (inactive) | > 100 µM (inactive) | – | > 100 µM (inactive) | 99.5 µM (inactive) | > 100 µM (inactive) | > 100 µM (inactive)
CCn1c2nc(=O)n(CCCCCCCCSC(c3ccccc3)(c3ccccc3)c3ccccc3)c(=O)c-2nc2ccccc21 | 1.43 µM (inactive) | 7.83 µM (inactive) | 3.7 µM (inactive) | 31.3 µM (inactive) | 9.91 µM (inactive) | 53.5 µM (inactive) | 7.14 µM (inactive) | > 100 µM (inactive) | 8.3 µM (inactive) | 4.62 µM (inactive) | 3.13 µM (inactive) | > 100 µM (inactive) | 20.4 µM (inactive) | 53.3 µM (inactive) | 2.61 µM (inactive) | 43.9 µM (inactive) | 3.73 µM (inactive) | 9.53 µM (inactive) | – | 82.8 µM (inactive)
